From patent US20230150974A1 (Foghorn Therapeutics Inc., priority 2020, published 2023) come the findings set out here.

In one assay the target is T1, HiBiT-BRM (Homo sapiens, UniProt P51531).
T1 construct: expressed in transfected cells
Description: HiBiT-BRM cell-based degradation assay (Nano-Glo HiBiT Lytic Detection). Particulars: HeLa cells expressing HiBiT-BRM, 24 h; for DC50: read-out: BRM HiBit Degradation IC50. In short, it runs like this:
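HeLa cells stably expressing HiBiT-tagged BRM were treated for 24 h, then lysed with LgBiT-containing Nano-Glo reagent and luminescence read. % degradation scaled between DMSO (high control) and 2 μM reference BRM/BRG1 degrader (low control).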
Background: The HiBiT peptide binds its large partner to form an active luciferase.

In another assay the target is T2, HiBit-BRG1 (Homo sapiens, UniProt P51532).
T2 construct: expressed in transfected cells
Description: HiBit-BRG1 cell-based degradation assay (Nano-Glo HiBiT Lytic Detection). Particulars: HeLa cells expressing HiBit-BRG1 and LgBit, 24 h; for DC50: read-out: BRG1 HiBit Degradation IC50; for Dmax: read-out: BRG1 HiBit Degradation Maximum (%). In short, it runs like this:
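Stable HeLa line co-expressing HiBit-BRG1 and LgBit, 5000 cells/well, treated 24 h in a tissue culture incubator. Lysed with Nano-Glo HiBiT lytic reagent, luminescence read. % degradation normalized to DMSO (high control) and 2 μM reference BRM/BRG1 degrader (low control).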

Where a name gives a salt, the structure may show the parent alone. Where only a bound is given, the exact number is not on record here.

T2 sequence (P51532 whole entry): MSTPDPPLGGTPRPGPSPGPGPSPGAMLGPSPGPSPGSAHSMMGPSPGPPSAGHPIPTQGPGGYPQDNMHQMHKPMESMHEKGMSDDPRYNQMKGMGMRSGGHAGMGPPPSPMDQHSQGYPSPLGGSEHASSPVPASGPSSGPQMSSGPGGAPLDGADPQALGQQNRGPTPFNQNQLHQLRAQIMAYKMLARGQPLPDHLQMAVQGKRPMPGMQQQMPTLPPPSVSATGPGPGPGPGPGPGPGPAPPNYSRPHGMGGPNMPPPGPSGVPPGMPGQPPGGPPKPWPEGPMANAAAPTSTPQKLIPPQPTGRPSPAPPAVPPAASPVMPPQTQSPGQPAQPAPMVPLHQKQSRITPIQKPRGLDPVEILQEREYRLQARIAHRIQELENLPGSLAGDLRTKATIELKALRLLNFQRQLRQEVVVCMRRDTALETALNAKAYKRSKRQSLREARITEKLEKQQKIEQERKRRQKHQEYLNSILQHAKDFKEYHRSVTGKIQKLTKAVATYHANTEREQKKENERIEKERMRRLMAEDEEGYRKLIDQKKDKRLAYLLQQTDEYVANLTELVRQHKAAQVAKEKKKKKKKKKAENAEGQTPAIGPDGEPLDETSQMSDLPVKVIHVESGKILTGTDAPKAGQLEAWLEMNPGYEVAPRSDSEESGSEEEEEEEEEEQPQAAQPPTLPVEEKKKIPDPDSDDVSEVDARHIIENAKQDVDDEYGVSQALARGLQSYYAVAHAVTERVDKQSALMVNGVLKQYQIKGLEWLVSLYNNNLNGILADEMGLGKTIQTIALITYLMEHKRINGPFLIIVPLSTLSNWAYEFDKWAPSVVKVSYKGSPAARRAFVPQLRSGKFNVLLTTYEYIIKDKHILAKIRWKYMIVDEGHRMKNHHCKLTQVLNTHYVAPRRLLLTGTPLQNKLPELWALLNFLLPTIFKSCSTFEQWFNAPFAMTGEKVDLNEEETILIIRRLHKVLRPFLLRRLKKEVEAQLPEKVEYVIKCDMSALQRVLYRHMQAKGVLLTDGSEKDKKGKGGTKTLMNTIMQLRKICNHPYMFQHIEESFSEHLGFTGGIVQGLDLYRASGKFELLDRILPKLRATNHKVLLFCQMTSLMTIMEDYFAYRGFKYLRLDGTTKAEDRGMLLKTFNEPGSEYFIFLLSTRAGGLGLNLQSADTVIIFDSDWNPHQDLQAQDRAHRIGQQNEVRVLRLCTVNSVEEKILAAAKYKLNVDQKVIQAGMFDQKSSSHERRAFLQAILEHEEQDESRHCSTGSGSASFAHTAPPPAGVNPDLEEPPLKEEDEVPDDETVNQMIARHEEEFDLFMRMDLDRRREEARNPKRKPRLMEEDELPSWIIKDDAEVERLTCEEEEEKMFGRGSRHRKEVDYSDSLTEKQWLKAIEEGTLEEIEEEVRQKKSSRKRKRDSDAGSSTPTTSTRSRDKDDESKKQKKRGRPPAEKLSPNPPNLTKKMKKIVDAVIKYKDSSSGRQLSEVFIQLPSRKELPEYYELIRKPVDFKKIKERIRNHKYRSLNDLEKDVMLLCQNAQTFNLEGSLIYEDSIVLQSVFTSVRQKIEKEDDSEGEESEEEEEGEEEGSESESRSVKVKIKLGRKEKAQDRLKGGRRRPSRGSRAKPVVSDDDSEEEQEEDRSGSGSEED
T1 sequence (P51531 whole entry): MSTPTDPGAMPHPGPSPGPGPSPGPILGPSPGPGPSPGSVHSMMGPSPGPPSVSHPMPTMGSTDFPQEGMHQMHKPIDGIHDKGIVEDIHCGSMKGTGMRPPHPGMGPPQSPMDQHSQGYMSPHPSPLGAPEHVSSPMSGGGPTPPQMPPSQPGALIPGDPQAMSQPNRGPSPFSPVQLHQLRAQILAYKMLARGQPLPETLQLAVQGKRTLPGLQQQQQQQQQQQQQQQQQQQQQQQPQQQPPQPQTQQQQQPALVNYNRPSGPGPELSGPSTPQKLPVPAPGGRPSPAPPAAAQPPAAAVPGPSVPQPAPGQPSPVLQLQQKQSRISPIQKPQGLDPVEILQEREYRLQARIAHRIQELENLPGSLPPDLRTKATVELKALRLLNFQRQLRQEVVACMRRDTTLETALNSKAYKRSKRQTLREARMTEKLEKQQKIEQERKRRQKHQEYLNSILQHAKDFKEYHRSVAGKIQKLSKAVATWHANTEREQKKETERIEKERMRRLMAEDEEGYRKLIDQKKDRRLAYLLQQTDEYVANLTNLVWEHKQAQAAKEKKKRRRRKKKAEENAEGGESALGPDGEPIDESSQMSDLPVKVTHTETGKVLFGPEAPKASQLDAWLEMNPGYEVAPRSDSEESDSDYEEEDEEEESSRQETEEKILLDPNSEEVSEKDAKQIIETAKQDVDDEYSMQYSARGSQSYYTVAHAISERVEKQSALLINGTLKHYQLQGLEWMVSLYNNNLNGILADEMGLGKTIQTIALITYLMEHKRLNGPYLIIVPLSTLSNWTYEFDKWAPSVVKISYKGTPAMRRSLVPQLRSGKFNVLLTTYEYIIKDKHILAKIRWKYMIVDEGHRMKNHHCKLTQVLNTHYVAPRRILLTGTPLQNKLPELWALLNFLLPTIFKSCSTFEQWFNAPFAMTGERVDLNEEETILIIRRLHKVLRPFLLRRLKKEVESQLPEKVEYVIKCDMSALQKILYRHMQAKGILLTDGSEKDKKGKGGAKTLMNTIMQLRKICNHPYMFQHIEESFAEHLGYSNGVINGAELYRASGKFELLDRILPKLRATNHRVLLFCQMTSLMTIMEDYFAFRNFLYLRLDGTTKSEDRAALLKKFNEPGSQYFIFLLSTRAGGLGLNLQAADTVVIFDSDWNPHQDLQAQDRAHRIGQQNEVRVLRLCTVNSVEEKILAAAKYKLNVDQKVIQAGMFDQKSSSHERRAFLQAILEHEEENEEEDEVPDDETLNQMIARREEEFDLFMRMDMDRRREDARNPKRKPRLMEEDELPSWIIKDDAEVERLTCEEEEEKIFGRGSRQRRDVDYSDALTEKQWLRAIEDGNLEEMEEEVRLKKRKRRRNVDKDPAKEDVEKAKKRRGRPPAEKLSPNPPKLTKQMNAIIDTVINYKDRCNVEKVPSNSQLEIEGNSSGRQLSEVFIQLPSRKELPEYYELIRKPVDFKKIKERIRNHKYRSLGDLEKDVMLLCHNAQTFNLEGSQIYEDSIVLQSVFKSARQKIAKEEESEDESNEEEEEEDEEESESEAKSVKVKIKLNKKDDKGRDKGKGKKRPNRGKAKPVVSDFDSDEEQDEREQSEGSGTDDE

As for `Cc1ncsc1-c1ccc(CNC(=O)[C@H]2C[C@H](O)CN2C(=O)[C@H](NC(=O)COCCOCCNC(=O)c2ccc(CCOc3cc(-c4ccccc4O)nnc3N)cc2)C(C)(C)C)cc1` (stereo in doubt) [Compound 59, (2R,4S)-1-[(2R)-2-[2-[2-(2-[[4-(2-[[3-amino-6-(2-hydroxyphenyl)pyridazin-4-yl]oxy]ethyl)phenyl]formamido]ethoxy)ethoxy]acetamido]-3,3-dimethylbutanoyl]-4-hydroxy-N-[[4-(4-methyl-1,3-thiazol-5-yl)phenyl]methyl]pyrrolidine-2-carboxamide], at HiBiT-BRM, the “BRM HiBit Degradation Maximum (%)” value was “B (“B” indicates maximum degradation ≥50%)” and the DC50 was greater than 1000 nM. Further, at HiBit-BRG1, the DC50 is greater than 1000 nM and the Dmax was less than 50%.
Turning to `Nc1nnc(-c2ccccc2O)cc1OCCc1ccc(CNC(=O)CCCCCCCCNc2ccc3c(c2)C(=O)N(C2CCC(=O)NC2=O)C3=O)cc1` (stereo not shown) [Compound 73, N-(4-(2-((3-amino-6-(2-hydroxyphenyl)pyridazin-4-yl)oxy)ethyl)benzyl)-9-((2-(2,6-dioxopiperidin-3-yl)-1,3-dioxoisoindolin-5-yl)amino)nonanamide], at HiBiT-BRM, the “BRM HiBit Degradation Maximum (%)” value was “C (“C” indicates maximum degradation <50%)” and the DC50 was greater than 1000 nM. At HiBit-BRG1, the DC50 is greater than 1000 nM and the Dmax is less than 50%.
As to `Cc1ncsc1-c1ccc([C@H](C)NC(=O)[C@@H]2C[C@@H](O)CN2C(=O)[C@@H](c2cc(OCCN3CC4CN(C(=O)c5ccc(CCOc6cc(-c7ccccc7O)nnc6N)cc5)CC43)no2)C(C)C)cc1` (stereo partly drawn) [Compound 225, (2S,4R)-1-((2R)-2-(3-(2-(3-(4-(2-((3-amino-6-(2-hydroxyphenyl)pyridazin-4-yl)oxy)ethyl)benzoyl)-3,6-diazabicyclo[3.2.0]heptan-6-yl)ethoxy)isoxazol-5-yl)-3-methylbutanoyl)-4-hydroxy-N-((S)-1-(4-(4-methylthiazol-5-yl)phenyl)ethyl)pyrrolidine-2-carboxamide], at HiBiT-BRM, the “BRM HiBit Degradation Maximum (%)” value is “A (“A” indicates maximum degradation ≥75%)” and the DC50 was greater than 100 nM. On HiBit-BRG1, the DC50 is greater than 100 nM and the Dmax was greater than 75%.
As for `Cc1ncsc1-c1ccc(CNC(=O)[C@@H]2C[C@@H](O)CN2C(=O)[C@@H](NC(=O)CCCCCCCC(=O)NCc2ccc(CCOc3cc(-c4ccccc4O)nnc3N)cc2)C(C)(C)C)cc1` [Compound 33], on HiBiT-BRM, the “BRM HiBit Degradation Maximum (%)” value is given as “A (“A” indicates maximum degradation ≥75%)” and the DC50 was greater than 100 nM. Moreover, at HiBit-BRG1, the DC50 was greater than 100 nM and the Dmax is greater than 50%.
With `CN(CCCCCNc1cccc2c1C(=O)N(C1CCC(=O)NC1=O)C2=O)Cc1ccc(CCOc2cc(-c3ccccc3O)nnc2N)cc1` (stereo not shown) [Compound 156, 4-((5-((4-(2-((3-amino-6-(2-hydroxyphenyl)pyridazin-4-yl)oxy)ethyl)benzyl)(methyl)amino)pentyl)amino)-2-(2,6-dioxopiperidin-3-yl)isoindoline-1,3-dione formate], on HiBiT-BRM, the “BRM HiBit Degradation Maximum (%)” value is listed as “B (“B” indicates maximum degradation ≥50%)” and the DC50 was greater than 10 nM. Besides, at HiBit-BRG1, the DC50 was less than 10 nM and the Dmax is greater than 50%.
As to `Cc1ncsc1-c1ccc(CNC(=O)[C@@H]2C[C@@H](O)CN2C(=O)[C@@H](NC(=O)CCN2C[C@@H]3[C@H](C2)[C@H]3C(=O)NCc2ccc(CCOc3cc(-c4ccccc4O)nnc3N)cc2)C(C)(C)C)cc1` [Compound 184, (1R,5S,6S)-N-[[4-(2-[[3-amino-6-(2-hydroxyphenyl)pyridazin-4-yl]oxy]ethyl)phenyl]methyl]-3-(2-[[(2S)-1-[(2S,4R)-4-hydroxy-2-([[4-(4-methyl-1,3-thiazol-5-yl)phenyl]methyl]carbamoyl)pyrrolidin-1-yl]-3,3-dimethyl-1-oxobutan-2-yl]carbamoyl]ethyl)-3-azabicyclo[3.1.0]hexane-6-carboxamide], at HiBiT-BRM, the “BRM HiBit Degradation Maximum (%)” value is “B (“B” indicates maximum degradation ≥50%)” and the DC50 was greater than 1000 nM. On HiBit-BRG1, the DC50 is greater than 1000 nM and the Dmax was less than 50%.
`Nc1nnc(-c2ccccc2O)cc1N1CCN(CCNC(=O)CCOCCOCCNc2ccc3c(c2)C(=O)N(C2CCC(=O)NC2=O)C3=O)CC1` (stereo not shown) [Compound 91, N-(2-[4-[3-amino-6-(2-hydroxyphenyl)pyridazin-4-yl]piperazin-1-yl]ethyl)-3-[2-(2-[[2-(2,6-dioxopiperidin-3-yl)-1,3-dioxo-2,3-dihydro-1H-isoindol-5-yl]amino]ethoxy)ethoxy]propanamide]: on HiBiT-BRM, the “BRM HiBit Degradation Maximum (%)” value is “C (“C” indicates maximum degradation <50%)” and the DC50 is greater than 1000 nM. Moreover, at HiBit-BRG1, the DC50 was greater than 1000 nM and the Dmax was less than 50%.
On to `Cc1ncsc1-c1ccc(CNC(=O)[C@@H]2C[C@@H](O)CN2C(=O)[C@@H](NC(=O)CCCCCCCCCCCCCCC(=O)NCc2ccc(CCOc3cc(-c4ccccc4O)nnc3N)cc2)C(C)(C)C)cc1` [Compound 40, N1-(4-(2-((3-amino-6-(2-hydroxyphenyl)pyridazin-4-yl)oxy)ethyl)benzyl)-N16-((S)-1-((2S,4R)-4-hydroxy-2-((4-(4-methylthiazol-5-yl)benzyl)carbamoyl)pyrrolidin-1-yl)-3,3-dimethyl-1-oxobutan-2-yl)hexadecanediamide], for which, at HiBiT-BRM, the “BRM HiBit Degradation Maximum (%)” value is “A (“A” indicates maximum degradation ≥75%)” and the DC50 is greater than 100 nM. Also, on HiBit-BRG1, the DC50 was greater than 1000 nM and the Dmax was less than 50%.
The corresponding values for `Cc1ncsc1-c1ccc(CNC(=O)[C@@H]2C[C@@H](O)CN2C(=O)[C@@H](NC(=O)CCCCCCCCCNCc2ccc(CCN(C)c3cc(-c4ccccc4O)nnc3N)cc2)C(C)(C)C)cc1` [Compound 131, (2S,4R)-1-((S)-2-(10-((4-(2-((3-amino-6-(2-hydroxyphenyl)pyridazin-4-yl)(methyl)amino)ethyl)benzyl)amino)decanamido)-3,3-dimethylbutanoyl)-4-hydroxy-N-(4-(4-methylthiazol-5-yl)benzyl)pyrrolidine-2-carboxamide] are “A (“A” indicates maximum degradation ≥75%)”, greater than 100 nM, greater than 100 nM and greater than 50%.
Take `Nc1nnc(-c2ccccc2O)cc1N1CCN(CC(=O)N2CC(COc3ccc4c(c3)C(=O)N(C3CCC(=O)NC3=O)C4=O)C2)CC1` (stereo not shown) [Compound 81, 5-((1-(2-(4-(3-amino-6-(2-hydroxyphenyl)pyridazin-4-yl)piperazin-1-yl)acetyl)azetidin-3-yl)methoxy)-2-(2,6-dioxopiperidin-3-yl)isoindoline-1,3-dione]: on HiBiT-BRM, the “BRM HiBit Degradation Maximum (%)” value is reported as “C (“C” indicates maximum degradation <50%)” and the DC50 is greater than 1000 nM. In addition, at HiBit-BRG1, the DC50 was greater than 1000 nM and the Dmax was less than 50%.
